Data on 1 compound can be found in PMC6522981, “Structure-based design generated novel hydroxamic acid based preferential HDAC6 lead inhibitor with on-target cytotoxic activity against primary choroid plexus carcinoma” (Journal of Enzyme Inhibition and Medicinal Chemistry, 2019).

“Also recorded” adds a separate entry of the source.

The target in one assay is T1, human HDAC7 (Homo sapiens, UniProt Q8WUI4).
T1 sequence (Q8WUI4 479-952 limits assumed): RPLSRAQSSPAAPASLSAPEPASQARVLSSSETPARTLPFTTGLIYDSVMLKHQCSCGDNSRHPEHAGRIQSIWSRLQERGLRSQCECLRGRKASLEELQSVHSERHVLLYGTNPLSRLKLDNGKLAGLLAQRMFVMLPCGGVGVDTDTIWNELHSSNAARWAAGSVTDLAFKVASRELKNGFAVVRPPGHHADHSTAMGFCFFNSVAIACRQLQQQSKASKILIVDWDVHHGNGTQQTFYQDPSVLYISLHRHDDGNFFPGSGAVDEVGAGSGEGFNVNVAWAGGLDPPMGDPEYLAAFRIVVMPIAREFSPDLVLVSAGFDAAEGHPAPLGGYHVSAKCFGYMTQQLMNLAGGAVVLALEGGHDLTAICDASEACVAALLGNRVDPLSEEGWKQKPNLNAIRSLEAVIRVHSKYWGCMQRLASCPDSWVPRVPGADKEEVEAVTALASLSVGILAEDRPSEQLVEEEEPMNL
In words: HDAC7 inhibitor enzymatic assay, % inhibition at fixed concentration. As to conditions: read-out: %inhibition of HDACs at 10µM of test compound HDAC7.

The target of the next assay is T2, human HDAC1 (Homo sapiens, UniProt Q13547).
T2 construct: purchased BPS Bioscience 50051
In words: HDAC1 inhibitor enzymatic assay, % inhibition at fixed concentration (BPS Bioscience, fluorogenic). Format: biochemical. The conditions noted are these: read-out: %inhibition of HDACs at 10µM of test compound HDAC1; 10 µM compound; mean of two replicates.

For assay [1], the system named is acetylated α-tubulin in CCHE-45 cells. In words: Western blot analysis of acetylated α-tubulin in CCHE-45 cells. It is filed as cell-based. As to conditions: 100 µM, 24 h. On the procedure: CCHE-45 cells were treated with 100 µM of test compound for 24 h. HL60 cell line (a kind gift from Professor Azza Kamel from the National Cancer Institute, Cairo University); and is cultured in RPMI-1640 (Lonza, BE-12-702F) supplemented with 10% Fetal Bovine Serum (FBS, Gibco, 12483–020) and 100 U/ml penicillin and 100 µg/ml streptomycin (Lonza, DE17-602F), has also been treated with different concentrations of 10a in twofold serial dilutions for 24 h. Proteins were extracted from CCHE-45 cells using RIPA Lysis and Extraction Buffer (ThermoScientific, cat. No: 89901) containing 100x Halt Protease and […] Inhibitor Cocktail (ThermoScientific, cat. No. 78444). Followed by protein quantification using Bradford Reagent (Pierce Coomassie Plus (Bradford) Assay Reagent) (ThermoScientific, cat. No. 23238). A total of 50 µg proteins were loaded on a 10% SDS page using 30% Acrylamide/Bisacrylamide 19:1(Serva, cat. No. 10679.01) then transferred by semidry transfer method using Bio-Rad Trans-Blot Turbo transfer system on PVDF Transfer Membrane (ThermoScientific, cat. No. 88518). The membranes were incubated overnight at 4 °C in the primary antibodies Mouse monoclonal Anti-Beta Actin antibody (1:100, abcam, ab8224) and Mouse monoclonal Anti-acetylated α Tubulin (1:200, Santa Cruz Biotechnology, sc-23950). […]
(In western blotting, separated proteins are transferred to a membrane and probed.)

The next assay concerns the target human HDAC5 (Homo sapiens, UniProt Q9UQL6). In words: HDAC5 inhibitor enzymatic assay, % inhibition at fixed concentration. As to conditions: read-out: %inhibition of HDACs at 10µM of test compound HDAC5.
The target in a further assay is T3, human HDAC6 (Homo sapiens, UniProt Q9UBN7).
T3 sequence (Q9UBN7 1-1215): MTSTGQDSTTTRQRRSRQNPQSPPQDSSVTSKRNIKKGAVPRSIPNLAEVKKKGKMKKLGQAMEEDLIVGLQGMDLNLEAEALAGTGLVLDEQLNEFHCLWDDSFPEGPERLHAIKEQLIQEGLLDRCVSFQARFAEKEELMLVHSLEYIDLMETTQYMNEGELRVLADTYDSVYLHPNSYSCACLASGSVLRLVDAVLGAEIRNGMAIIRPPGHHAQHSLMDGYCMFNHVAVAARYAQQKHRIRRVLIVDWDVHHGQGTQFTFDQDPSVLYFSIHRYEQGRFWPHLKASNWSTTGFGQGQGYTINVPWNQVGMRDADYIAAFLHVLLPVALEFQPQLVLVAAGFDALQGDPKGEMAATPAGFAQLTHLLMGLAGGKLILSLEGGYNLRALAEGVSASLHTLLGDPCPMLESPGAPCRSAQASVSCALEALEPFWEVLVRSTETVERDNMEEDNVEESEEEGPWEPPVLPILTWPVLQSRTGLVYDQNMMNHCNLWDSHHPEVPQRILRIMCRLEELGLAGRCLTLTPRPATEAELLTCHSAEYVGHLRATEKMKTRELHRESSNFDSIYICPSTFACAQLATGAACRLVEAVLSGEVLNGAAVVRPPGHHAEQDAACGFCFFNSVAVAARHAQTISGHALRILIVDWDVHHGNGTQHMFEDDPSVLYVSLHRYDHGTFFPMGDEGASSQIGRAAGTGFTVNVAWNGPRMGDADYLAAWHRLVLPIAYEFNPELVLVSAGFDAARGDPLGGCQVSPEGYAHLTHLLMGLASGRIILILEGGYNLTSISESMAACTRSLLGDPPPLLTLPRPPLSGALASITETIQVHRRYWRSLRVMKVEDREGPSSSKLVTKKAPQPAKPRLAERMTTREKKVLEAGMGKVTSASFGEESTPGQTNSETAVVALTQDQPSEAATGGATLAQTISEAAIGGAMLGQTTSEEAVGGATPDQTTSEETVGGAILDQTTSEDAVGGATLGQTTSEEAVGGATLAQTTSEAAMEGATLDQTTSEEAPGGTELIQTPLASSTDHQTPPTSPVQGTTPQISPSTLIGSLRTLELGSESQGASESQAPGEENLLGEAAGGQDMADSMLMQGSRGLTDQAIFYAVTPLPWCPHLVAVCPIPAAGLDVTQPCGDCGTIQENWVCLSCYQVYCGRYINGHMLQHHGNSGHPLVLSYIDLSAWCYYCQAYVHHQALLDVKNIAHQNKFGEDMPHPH
In words: HDAC6 inhibitor enzymatic assay, % inhibition at fixed concentration. The conditions noted are these: read-out: %inhibition of HDACs at 10µM of test compound HDAC6.

human HDAC5, sequence (Q9UQL6 656-1122 limits assumed): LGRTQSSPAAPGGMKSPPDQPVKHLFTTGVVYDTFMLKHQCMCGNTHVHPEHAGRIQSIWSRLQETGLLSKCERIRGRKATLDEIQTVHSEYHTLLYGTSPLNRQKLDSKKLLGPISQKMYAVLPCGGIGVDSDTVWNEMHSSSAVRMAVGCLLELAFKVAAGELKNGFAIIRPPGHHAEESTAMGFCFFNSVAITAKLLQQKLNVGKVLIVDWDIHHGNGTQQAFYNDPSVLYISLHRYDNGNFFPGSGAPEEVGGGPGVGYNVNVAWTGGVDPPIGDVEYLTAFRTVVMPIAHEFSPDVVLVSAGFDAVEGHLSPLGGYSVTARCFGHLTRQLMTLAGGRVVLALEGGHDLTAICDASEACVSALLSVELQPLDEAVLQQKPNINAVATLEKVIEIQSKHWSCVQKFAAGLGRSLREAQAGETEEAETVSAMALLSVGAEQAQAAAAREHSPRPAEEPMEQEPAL
T2 sequence (Q13547 whole entry): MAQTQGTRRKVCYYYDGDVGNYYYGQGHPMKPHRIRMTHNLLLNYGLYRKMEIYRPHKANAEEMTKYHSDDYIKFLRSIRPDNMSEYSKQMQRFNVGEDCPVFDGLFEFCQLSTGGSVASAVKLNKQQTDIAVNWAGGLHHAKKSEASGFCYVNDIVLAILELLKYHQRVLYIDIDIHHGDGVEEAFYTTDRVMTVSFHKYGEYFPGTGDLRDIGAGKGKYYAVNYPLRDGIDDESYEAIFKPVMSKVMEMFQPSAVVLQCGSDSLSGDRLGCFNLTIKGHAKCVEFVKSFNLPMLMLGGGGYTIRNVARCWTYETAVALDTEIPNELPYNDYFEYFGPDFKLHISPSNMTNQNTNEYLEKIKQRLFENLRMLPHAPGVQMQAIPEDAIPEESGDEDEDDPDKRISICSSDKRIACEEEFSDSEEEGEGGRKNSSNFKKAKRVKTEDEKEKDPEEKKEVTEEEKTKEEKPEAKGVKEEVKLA

For the compound `O=C(CCCSc1nc2ccccc2n1Cc1ccccc1)NO` [Compound 10a, 4-((1-benzyl-1H-benzo[d]imidazol-2-yl)thio)-N-hydroxybutanamide], the inhibition (in general, the share of the control response that was lost under treatment) at 10 µM on human HDAC7 turned out to be 2%; at human HDAC1 it was 36%; on human HDAC5 it was 4%; at human HDAC6, 92%. Besides, the “acetylated α-tubulin level (Western blot)” value in assay [1] is “significant increase; also recorded: upregulated acetylated α-tubulin”.
